Columns and labels:
[1] = system: GLXMAW (Soybean, Williams); assay: Preemergence herbicidal evaluation; format: in vivo, Glycine max, (L.) Merr. cv Williams; conditions: rated 4-5 weeks after treatment
Procedure, shortened: (§1)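 Seeds were planted in potting soil in cups, then sprayed preemergence with the test compound in aqueous acetone at about 0.0156 to 0.500 kg per hectare. Cups were kept under greenhouse conditions and visually rated 4–5 weeks after treatment on a 0–9 scale against an untreated control.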

[2] = system: CHEAL (Lambsquarters, Common); assay: Postemergence herbicidal evaluation; format: in vivo, Chenopodium album; conditions: postemergence
Procedure, shortened: (§2)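 Each compound, dispersed in an acetone/water mix (50/50) carrying 0.5% TWEEN 20, is nozzle-sprayed at 40 psi on approximately two-week-old seedlings at about 0.0156–0.500 kg/ha. Plants are assessed 4–5 weeks afterward on a 0–9 scale relative to control; duplicate tests are averaged.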

ECHCG (Barnyardgrass) [3] = assay: Preemergence herbicidal evaluation; format: in vivo, Echinochloa crus-galli; conditions: rated 4-5 weeks after treatment
Procedure, shortened: as §1

ABUTH (Velvetleaf) [4] = assay: Postemergence herbicidal evaluation; format: in vivo, Abutilon theophrasti; conditions: postemergence
Procedure, shortened: as §2

ZEAMX (Corn, Field) [5] = assay: Postemergence herbicidal evaluation; format: in vivo, Zea mays; conditions: postemergence
Procedure, shortened: as §2

SETVI (Foxtail, Green) = assay: Postemergence herbicidal evaluation; format: in vivo, Setaria viridis; conditions: postemergence
Procedure, shortened: as §2

CYPSE (Flatsedge) = assay: Postemergence weed control under flooded paddy conditions; format: in vivo, Cyperus serotinus; conditions: postemergence weeds, rated 3 to 4 weeks after treatment
Procedure, shortened: (§3)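 Weeds 3 to 5 cm tall and rice seedlings at the 1.5 to 2.5 leaf stage were flooded, with water held 1.5 to 3 cm above the soil. Compounds in 50/50 v/v aqueous/acetone went into the flood water at about 0.0313 to 0.500 kg/ha. Visual 0-9 ratings versus control were made 3 to 4 weeks later.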

ZEAMX (Corn, Field) [6] = assay: Preemergence herbicidal evaluation; format: in vivo, Zea mays; conditions: rated 4-5 weeks after treatment
Procedure, shortened: as §1

[7] = system: IPOHE (Morningglory, Ivyleaf); assay: Preemergence herbicidal evaluation; format: in vivo, Ipomoea hederacea; conditions: rated 4-5 weeks after treatment
Procedure, shortened: as §1

[8] = system: IPOHE (Morningglory, Ivyleaf); assay: Postemergence herbicidal evaluation; format: in vivo, Ipomoea hederacea; conditions: postemergence
Procedure, shortened: as §2

CYPIR (Rice Flatsedge) = assay: Postemergence weed control under flooded paddy conditions; format: in vivo, Cyperus iria; conditions: postemergence weeds, rated 3 to 4 weeks after treatment
Procedure, shortened: as §3

CASOB (Sicklepod) = assay: Preemergence herbicidal evaluation; format: in vivo, Cassia obtusifolia; conditions: rated 4-5 weeks after treatment
Procedure, shortened: as §1

[9] = system: TRZAWR (Wheat, Winter, cv Riband); assay: Preemergence herbicidal evaluation; format: in vivo, Triticum aestivum; conditions: rated 4-5 weeks after treatment
Procedure, shortened: as §1

ECHCG (Barnyardgrass) [10] = assay: Postemergence herbicidal evaluation; format: in vivo, Echinochloa crus-galli; conditions: postemergence
Procedure, shortened: as §2

ABUTH (Velvetleaf) [11] = assay: Preemergence herbicidal evaluation; format: in vivo, Abutilon theophrasti; conditions: rated 4-5 weeks after treatment
Procedure, shortened: as §1

[12] = system: CHEAL (Lambsquarters, Common); assay: Preemergence herbicidal evaluation; format: in vivo, Chenopodium album; conditions: rated 4-5 weeks after treatment
Procedure, shortened: as §1

ORYSAT (Rice, Tebonnet) = assay: Postemergence herbicidal evaluation; format: in vivo, Oryza sativa, (L.) Tebonnet; conditions: postemergence
Procedure, shortened: as §2

Compound: Cn1c(C(F)(F)F)cc(=O)n(-c2cc(N=C3SCC(=O)N3C3CCOC3=O)c(Cl)cc2F)c1=O (stereo not shown) [Compound 73]
- Preemergence herbicidal rating GLXMAW ([1]; rate 0.0156 kg/ha): 0.0
- Preemergence herbicidal rating GLXMAW ([1]; rate 0.0313 kg/ha): 1.0
- Preemergence herbicidal rating GLXMAW ([1]; rate 0.0625 kg/ha): 1.0
- Preemergence herbicidal rating GLXMAW ([1]; rate 0.1250 kg/ha): 1.0
- Preemergence herbicidal rating GLXMAW ([1]; rate 0.2500 kg/ha): 9.0
- CHEAL herbicidal rating ([2]; rate 0.0158 kg/ha): 4.0
- CHEAL herbicidal rating ([2]; rate 0.0315 kg/ha): 9.0
- CHEAL herbicidal rating ([2]; rate 0.0630 kg/ha): 9.0
- Preemergence herbicidal rating ECHCG (ECHCG (Barnyardgrass) [3]; rate 0.0156 kg/ha): 0.0
- Preemergence herbicidal rating ECHCG (ECHCG (Barnyardgrass) [3]; rate 0.0313 kg/ha): 0.0
- Preemergence herbicidal rating ECHCG (ECHCG (Barnyardgrass) [3]; rate 0.0625 kg/ha): 0.0
- Preemergence herbicidal rating ECHCG (ECHCG (Barnyardgrass) [3]; rate 0.1250 kg/ha): 0.0
- Preemergence herbicidal rating ECHCG (ECHCG (Barnyardgrass) [3]; rate 0.2500 kg/ha): 4.0
- ABUTH herbicidal rating (ABUTH (Velvetleaf) [4]; rate 0.0158 kg/ha): 9.0
- ABUTH herbicidal rating (ABUTH (Velvetleaf) [4]; rate 0.0315 kg/ha): 9.0
- ABUTH herbicidal rating (ABUTH (Velvetleaf) [4]; rate 0.0630 kg/ha): 9.0
- ZEAMX herbicidal rating (ZEAMX (Corn, Field) [5]; rate 0.0158 kg/ha): 4.5
- ZEAMX herbicidal rating (ZEAMX (Corn, Field) [5]; rate 0.0315 kg/ha): 4.5
- ZEAMX herbicidal rating (ZEAMX (Corn, Field) [5]; rate 0.0630 kg/ha): 5.0
- SETVI herbicidal rating (SETVI (Foxtail, Green); rate 0.0158 kg/ha): 1.0
- SETVI herbicidal rating (SETVI (Foxtail, Green); rate 0.0315 kg/ha): 2.0
- SETVI herbicidal rating (SETVI (Foxtail, Green); rate 0.0630 kg/ha): 7.0
- Herbicidal rating CYPSE (CYPSE (Flatsedge); Rate 0.1250 kg/ha): 2.0
- Herbicidal rating CYPSE (CYPSE (Flatsedge); Rate 0.2500 kg/ha): 4.0
- Preemergence herbicidal rating ZEAMX (ZEAMX (Corn, Field) [6]; rate 0.0156 kg/ha): 0.0
- Preemergence herbicidal rating ZEAMX (ZEAMX (Corn, Field) [6]; rate 0.0313 kg/ha): 0.0
- Preemergence herbicidal rating ZEAMX (ZEAMX (Corn, Field) [6]; rate 0.0625 kg/ha): 1.0
- Preemergence herbicidal rating ZEAMX (ZEAMX (Corn, Field) [6]; rate 0.1250 kg/ha): 4.0
- Preemergence herbicidal rating ZEAMX (ZEAMX (Corn, Field) [6]; rate 0.2500 kg/ha): 7.0
- Preemergence herbicidal rating IPOHE ([7]; rate 0.0156 kg/ha): 0.0
- Preemergence herbicidal rating IPOHE ([7]; rate 0.0313 kg/ha): 1.0
- Preemergence herbicidal rating IPOHE ([7]; rate 0.0625 kg/ha): 0.0
- Preemergence herbicidal rating IPOHE ([7]; rate 0.1250 kg/ha): 1.0
- Preemergence herbicidal rating IPOHE ([7]; rate 0.2500 kg/ha): 7.0
- IPOHE herbicidal rating ([8]; rate 0.0158 kg/ha): 9.0
- IPOHE herbicidal rating ([8]; rate 0.0315 kg/ha): 9.0
- IPOHE herbicidal rating ([8]; rate 0.0630 kg/ha): 9.0
- Herbicidal rating CYPIR (CYPIR (Rice Flatsedge); Rate 0.1250 kg/ha): 0.0
- Herbicidal rating CYPIR (CYPIR (Rice Flatsedge); Rate 0.2500 kg/ha): 6.0
- Preemergence herbicidal rating CASOB (CASOB (Sicklepod); rate 0.0313 kg/ha): 0.0
- Preemergence herbicidal rating CASOB (CASOB (Sicklepod); rate 0.0625 kg/ha): 0.0
- Preemergence herbicidal rating CASOB (CASOB (Sicklepod); rate 0.1250 kg/ha): 1.0
- Preemergence herbicidal rating CASOB (CASOB (Sicklepod); rate 0.2500 kg/ha): 2.0
- Preemergence herbicidal rating TRZAWR ([9]; rate 0.0156 kg/ha): 0.0
- Preemergence herbicidal rating TRZAWR ([9]; rate 0.0313 kg/ha): 0.0
- Preemergence herbicidal rating TRZAWR ([9]; rate 0.0625 kg/ha): 1.0
- Preemergence herbicidal rating TRZAWR ([9]; rate 0.1250 kg/ha): 3.0
- Preemergence herbicidal rating TRZAWR ([9]; rate 0.2500 kg/ha): 4.0
- ECHCG herbicidal rating (ECHCG (Barnyardgrass) [10]; rate 0.0158 kg/ha): 2.0
- ECHCG herbicidal rating (ECHCG (Barnyardgrass) [10]; rate 0.0315 kg/ha): 2.0
- ECHCG herbicidal rating (ECHCG (Barnyardgrass) [10]; rate 0.0630 kg/ha): 3.0
- Preemergence herbicidal rating ABUTH (ABUTH (Velvetleaf) [11]; rate 0.0156 kg/ha): 9.0
- Preemergence herbicidal rating ABUTH (ABUTH (Velvetleaf) [11]; rate 0.0313 kg/ha): 9.0
- Preemergence herbicidal rating ABUTH (ABUTH (Velvetleaf) [11]; rate 0.0625 kg/ha): 9.0
- Preemergence herbicidal rating ABUTH (ABUTH (Velvetleaf) [11]; rate 0.1250 kg/ha): 9.0
- Preemergence herbicidal rating ABUTH (ABUTH (Velvetleaf) [11]; rate 0.2500 kg/ha): 9.0
- Preemergence herbicidal rating CHEAL ([12]; rate 0.0156 kg/ha): 9.0
- Preemergence herbicidal rating CHEAL ([12]; rate 0.0313 kg/ha): 9.0
- Preemergence herbicidal rating CHEAL ([12]; rate 0.0625 kg/ha): 9.0
- Preemergence herbicidal rating CHEAL ([12]; rate 0.1250 kg/ha): 9.0
- Preemergence herbicidal rating CHEAL ([12]; rate 0.2500 kg/ha): 9.0
- ORYSAT herbicidal rating (ORYSAT (Rice, Tebonnet); rate 0.0158 kg/ha): 2.5
- ORYSAT herbicidal rating (ORYSAT (Rice, Tebonnet); rate 0.0315 kg/ha): 3.0
- ORYSAT herbicidal rating (ORYSAT (Rice, Tebonnet); rate 0.0630 kg/ha): 4.0

Source: US20020137929A1, “1 - (3-heterocyclylphenyl) isothiourea, -isourea, -guanidine and -amidine herbicidal agents” (Intellectual Property Department, BASF Aktiengesellschaft, priority 1998, published 2002)
